The target of the assay is T1, Recombinant human IL-1β (Homo sapiens, UniProt P01584).
T1 construct: purchased BioLegend 579404
Description: IL-6 assay in MRC5 cells: inhibition of IL-1β induced IL-6 secretion (AlphaLISA). The following applies: inhibition of IL-1β induced IL-6 secretion in MRC5 cells; IL-1β pre-incubated 1 hour with compound; read-out: MRC5 IC50. It counts as cell-based. The essentials:
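IL-1β at 2×EC80 in seeding medium (EMEM, 0.025% BSA) preincubated 1 h at ambient temperature with compound, then 3000 MRC5 cells/well added and incubated overnight at 37 °C, 5% CO2. IL-6 in conditioned medium quantified by AlphaLISA; IC50 from 4-parameter logistic fit.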

*1 amine or outer side, *2 acyl side, *3 side chain or, on linkers, in order; H or OH if unused. Where a SMILES comes first, the peptide text is derived from it. [ ]: non-standard residue; d: D form. Bip(4'-COOH) = N[C@@H](Cc1ccc(-c2ccc(C(=O)O)cc2)cc1)C(=O)O; X3 = CC(=O)N1CCN(c2ncc(C[C@H](N[*:1])C(=O)[*:2])cn2)CC1; 1Nal(3S-Me) = C[C@@H](c1cccc2ccccc12)[C@H](N)C(=O)O; Ala(indazol-1-yl) = N[C@@H](Cn1ncc2ccccc21)C(=O)O; Ala(indolin-1-yl) = N[C@@H](CN1CCc2ccccc21)C(=O)O; Phe(4-COOH) = N[C@@H](Cc1ccc(C(=O)O)cc1)C(=O)O; h3Pal(5-CN) = N#Cc1cncc(CC[C@H](N)C(=O)O)c1; Pro(4R-NH2) = N[C@H]1CN[C@H](C(=O)O)C1; 1Nal = N[C@@H](Cc1cccc2ccccc12)C(=O)O; AEF = NCCOc1ccc(C[C@H](N)C(=O)O)cc1; hTyr = N[C@@H](CCc1ccc(O)cc1)C(=O)O; dDab = NCC[C@@H](N)C(=O)O; dNMeA = CN[C@H](C)C(=O)O; Dab = NCC[C@H](N)C(=O)O; Nva = CCC[C@H](N)C(=O)O; Dap = NC[C@H](N)C(=O)O; Aib = CC(C)(N)C(=O)O

The source of these data is patent US20230406885A1, “CYCLIC PEPTIDES FOR TRAPPING INTERLEUKIN-1 BETA” (MERCK SHARP & DOHME LLC, priority 2022, published 2023).

T1 sequence (P01584 117-269): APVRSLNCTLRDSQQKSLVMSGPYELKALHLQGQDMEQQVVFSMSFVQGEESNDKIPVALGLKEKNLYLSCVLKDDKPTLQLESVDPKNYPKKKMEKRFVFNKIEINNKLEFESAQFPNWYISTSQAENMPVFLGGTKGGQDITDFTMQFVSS

With `CC(=O)N1CCN(c2ncc(C[C@@H]3NC(=O)[C@H](CCc4ccc(O)cc4)NC(=O)[C@@H](C)NC(=O)[C@H](CN)NC(=O)[C@H](Cc4c[nH]c5ccccc45)NC(=O)[C@H](Cc4ccc(-c5ccc(C(=O)O)cc5)cc4)NC(=O)CNC(=O)[C@@H](C)N(C)C(=O)[C@H](CC(=O)O)NC(=O)[C@H]([C@@H](C)c4cccc5ccccc45)NC(=O)[C@@H]4C[C@@H](N)CN4C(=O)CNC(=O)[C@H](Cc4ccc(C(=O)O)cc4)NC(=O)[C@H](Cc4c[nH]c5ccccc45)NC3=O)cn2)CC1` [Example 88] (cyclo([X3]W[Phe(4-COOH)]G[Pro(4R-NH2)][1Nal(3S-Me)]D[dNMeA]G[Bip(4'-COOH)]W[Dap][dA][hTyr])), the IC50 was found to be 0.0945 nM.

For the compound `CC(=O)NCCOc1ccc(C[C@@H]2NC(=O)[C@H](CCc3ccc(O)cc3)NC(=O)[C@@H](C)NC(=O)[C@H](CN)NC(=O)[C@H](Cc3c[nH]c4ccccc34)NC(=O)[C@H](Cc3ccc(-c4ccc(C(=O)O)cc4)cc3)NC(=O)CNC(=O)[C@@H](C)N(C)C(=O)[C@H](C)NC(=O)[C@H]([C@@H](C)c3cccc4ccccc34)NC(=O)[C@@H]3C[C@@H](N)CN3C(=O)CNC(=O)[C@H](Cc3ccc(C(=O)O)cc3)NC(=O)[C@H](Cc3c[nH]c4ccccc34)NC2=O)cc1` [Example 89] (cyclo([AEF](Ac)W[Phe(4-COOH)]G[Pro(4R-NH2)][1Nal(3S-Me)]A[dNMeA]G[Bip(4'-COOH)]W[Dap][dA][hTyr])), the IC50 was found to be 0.271 nM. In the case of `CC(=O)NCCOc1ccc(C[C@@H]2NC(=O)[C@H](CCc3cncc(C#N)c3)NC(=O)[C@@H](CCN)NC(=O)CNC(=O)[C@H](Cn3ncc4ccccc43)NC(=O)[C@H](Cc3ccc(-c4ccc(C(=O)O)cc4)cc3)NC(=O)CNC(=O)[C@@H](C)N(C)C(=O)[C@H](CC(=O)O)NC(=O)[C@H]([C@@H](C)c3cccc4ccccc34)NC(=O)[C@@H]3C[C@@H](N)CN3C(=O)CNC(=O)[C@H](Cc3ccc(C(=O)O)cc3)NC(=O)[C@H](Cc3c[nH]c4ccccc34)NC2=O)cc1` [Example 90] (cyclo([AEF](Ac)W[Phe(4-COOH)]G[Pro(4R-NH2)][1Nal(3S-Me)]D[dNMeA]G[Bip(4'-COOH)][Ala(indazol-1-yl)]G[dDab][h3Pal(5-CN)])), the IC50 was 0.0507 nM. For the compound `CC(=O)NCCOc1ccc(C[C@@H]2NC(=O)[C@H](CCc3cncc(C#N)c3)NC(=O)[C@@H](CCN)NC(=O)CNC(=O)[C@H](CN3CCc4ccccc43)NC(=O)[C@H](Cc3ccc(-c4ccc(C(=O)O)cc4)cc3)NC(=O)CNC(=O)[C@@H](C)N(C)C(=O)[C@H](CC(=O)O)NC(=O)[C@H]([C@@H](C)c3cccc4ccccc34)NC(=O)[C@@H]3C[C@@H](N)CN3C(=O)CNC(=O)[C@H](Cc3ccc(C(=O)O)cc3)NC(=O)[C@H](Cc3c[nH]c4ccccc34)NC2=O)cc1` [Example 91] (cyclo([AEF](Ac)W[Phe(4-COOH)]G[Pro(4R-NH2)][1Nal(3S-Me)]D[dNMeA]G[Bip(4'-COOH)][Ala(indolin-1-yl)]G[dDab][h3Pal(5-CN)])), the IC50 was 0.0234 nM. The figure for `CC(=O)NCCOc1ccc(C[C@@H]2NC(=O)CNC(=O)C(C)(C)NC(=O)[C@H](CCN)NC(=O)[C@H](Cc3cccc4ccccc34)NC(=O)[C@H](Cc3ccc(-c4ccc(C(=O)O)cc4)cc3)NC(=O)CNC(=O)[C@@H](C)N(C)C(=O)[C@H](CC(=O)O)NC(=O)[C@H]([C@@H](C)c3cccc4ccccc34)NC(=O)[C@@H]3C[C@@H](N)CN3C(=O)CNC(=O)[C@H](Cc3ccc(C(=O)O)cc3)NC(=O)[C@H](Cc3c[nH]c4ccccc34)NC2=O)cc1` [Example 92] (cyclo([AEF](Ac)W[Phe(4-COOH)]G[Pro(4R-NH2)][1Nal(3S-Me)]D[dNMeA]G[Bip(4'-COOH)][1Nal][Dab][Aib]G)) is 0.457 nM. With `CC(=O)NCCOc1ccc(C[C@@H]2NC(=O)[C@H](CCc3ccc(O)cc3)NC(=O)C(C)(C)NC(=O)[C@H](CCN)NC(=O)[C@H](Cc3cccc4ccccc34)NC(=O)[C@H](Cc3ccc(-c4ccc(C(=O)O)cc4)cc3)NC(=O)CNC(=O)[C@@H](C)N(C)C(=O)[C@H](CC(=O)O)NC(=O)[C@H]([C@@H](C)c3cccc4ccccc34)NC(=O)[C@@H]3C[C@@H](N)CN3C(=O)CNC(=O)[C@H](Cc3ccc(C(=O)O)cc3)NC(=O)[C@H](Cc3c[nH]c4ccccc34)NC2=O)cc1` [Example 93] (cyclo([AEF](Ac)W[Phe(4-COOH)]G[Pro(4R-NH2)][1Nal(3S-Me)]D[dNMeA]G[Bip(4'-COOH)][1Nal][Dab][Aib][hTyr])), the IC50 was 0.12 nM. As for `CC(=O)NCCOc1ccc(C[C@@H]2NC(=O)[C@H](CCc3cncc(C#N)c3)NC(=O)C(C)(C)NC(=O)[C@H](CN)NC(=O)[C@H](Cc3cccc4ccccc34)NC(=O)[C@H](Cc3ccc(-c4ccc(C(=O)O)cc4)cc3)NC(=O)CNC(=O)[C@@H](C)N(C)C(=O)[C@H](CC(=O)O)NC(=O)[C@H]([C@@H](C)c3cccc4ccccc34)NC(=O)[C@@H]3C[C@@H](N)CN3C(=O)CNC(=O)[C@H](Cc3ccc(C(=O)O)cc3)NC(=O)[C@H](Cc3c[nH]c4ccccc34)NC2=O)cc1` [Example 94] (cyclo([AEF](Ac)W[Phe(4-COOH)]G[Pro(4R-NH2)][1Nal(3S-Me)]D[dNMeA]G[Bip(4'-COOH)][1Nal][Dap][Aib][h3Pal(5-CN)])), the figure is 0.0639 nM; as for `CC(=O)NCCOc1ccc(C[C@@H]2NC(=O)CNC(=O)C(C)(C)NC(=O)[C@H](CC(C)C)NC(=O)[C@H](Cc3cccc4ccccc34)NC(=O)[C@H](Cc3ccc(-c4ccc(C(=O)O)cc4)cc3)NC(=O)CNC(=O)[C@@H](C)N(C)C(=O)[C@H](CC(=O)O)NC(=O)[C@H]([C@@H](C)c3cccc4ccccc34)NC(=O)[C@@H]3C[C@@H](N)CN3C(=O)CNC(=O)[C@H](Cc3ccc(C(=O)O)cc3)NC(=O)[C@H](Cc3c[nH]c4ccccc34)NC2=O)cc1` [Example 95] (cyclo([AEF](Ac)W[Phe(4-COOH)]G[Pro(4R-NH2)][1Nal(3S-Me)]D[dNMeA]G[Bip(4'-COOH)][1Nal]L[Aib]G)), 0.422 nM; as for `CC(=O)NCCOc1ccc(C[C@@H]2NC(=O)[C@H](C)NC(=O)[C@@H](C)NC(=O)[C@H](CC(C)C)NC(=O)[C@H](Cc3cccc4ccccc34)NC(=O)[C@H](Cc3ccc(-c4ccc(C(=O)O)cc4)cc3)NC(=O)CNC(=O)[C@@H](C)N(C)C(=O)[C@H](CC(=O)O)NC(=O)[C@H]([C@@H](C)c3cccc4ccccc34)NC(=O)[C@@H]3C[C@@H](N)CN3C(=O)CNC(=O)[C@H](Cc3ccc(C(=O)O)cc3)NC(=O)[C@H](Cc3c[nH]c4ccccc34)NC2=O)cc1` [Example 97] (cyclo([AEF](Ac)W[Phe(4-COOH)]G[Pro(4R-NH2)][1Nal(3S-Me)]D[dNMeA]G[Bip(4'-COOH)][1Nal]L[dA]A)), 0.295 nM. As for `CCC[C@@H]1NC(=O)[C@H](Cc2cccc3ccccc23)NC(=O)[C@H](Cc2ccc(-c3ccc(C(=O)O)cc3)cc2)NC(=O)CNC(=O)[C@@H](C)N(C)C(=O)[C@H](CC(=O)O)NC(=O)[C@H]([C@@H](C)c2cccc3ccccc23)NC(=O)[C@@H]2C[C@@H](N)CN2C(=O)CNC(=O)[C@H](Cc2ccc(C(=O)O)cc2)NC(=O)[C@H](Cc2c[nH]c3ccccc23)NC(=O)[C@H](Cc2ccc(OCCNC(C)=O)cc2)NC(=O)[C@H](C)NC(=O)[C@@H](C)NC1=O` [Example 98] (cyclo([AEF](Ac)W[Phe(4-COOH)]G[Pro(4R-NH2)][1Nal(3S-Me)]D[dNMeA]G[Bip(4'-COOH)][1Nal][Nva][dA]A)), the figure is 0.494 nM.
